According to PubChem BioAssay AID2060895 (Molecular Pharmacology Branch, DTP, NCI, 2025):

System: PDC 899932-113-R3-J6 complex spheroid viability
Assay: Anticancer human tumor 899932-113-R3-J6-PDC patient-derived melanoma cell line growth inhibition [RAS]
Settings: for IC50: curve of first compound; for viability, T/C: stronger effect = lower value
How it was run: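 Multi-cell-type spheroids: tumor cells plus HUVEC endothelial cells and mesenchymal stem cells. RAS-pathway inhibitors were combined with targeted agents, each dosed in half-log steps down from clinical Cmax, or from 10 microM when Cmax was unknown.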
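Wherever viability, T/C is given: spheroids exposed to agents for seven days before readout; 100% = DMSO vehicle control wells.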

C=CC(=O)N1CCN(c2nc(OCC3CCCN3C)nc3c(F)c(-c4nc(N)cc(C)c4C(F)(F)F)c(Cl)cc23)C(C)C1 (configuration not stated) + CCn1c(-c2cccnc2C(C)OC)c2c3cc(ccc31)N1CCOC(CC(NC(=O)C(C(C)C)N(C)C(=O)C3(F)CCN(C(=O)C#CC(C)(C)N(C)C)CC3)C(=O)N3CCCC(N3)C(=O)OCC(C)(C)C2)C1
IC50 (second compound 0.000949 µM): > 1000 nM
IC50 (second compound 0.003 µM): > 1000 nM
IC50 (second compound 0.00949 µM): > 1000 nM
IC50 (second compound 0.03 µM): > 1000 nM
IC50 (second compound 0.0949 µM): > 1000 nM
IC50 (second compound 0.3 µM): > 1000 nM
viability, T/C (second compound 0.000949 µM, first compound 0.00316 µM): 113%
viability, T/C (second compound 0.000949 µM, first compound 0.01 µM): 101%
viability, T/C (second compound 0.000949 µM, first compound 0.0316 µM): 118%
viability, T/C (second compound 0.000949 µM, first compound 0.1 µM): 106%
viability, T/C (second compound 0.000949 µM, first compound 0.316 µM): 108%
viability, T/C (second compound 0.000949 µM, first compound 1 µM): 105%
viability, T/C (second compound 0.003 µM, first compound 0.00316 µM): 107%
viability, T/C (second compound 0.003 µM, first compound 0.01 µM): 118%
viability, T/C (second compound 0.003 µM, first compound 0.0316 µM): 105%
viability, T/C (second compound 0.003 µM, first compound 0.1 µM): 108%
viability, T/C (second compound 0.003 µM, first compound 0.316 µM): 108%
viability, T/C (second compound 0.003 µM, first compound 1 µM): 104%
viability, T/C (second compound 0.00949 µM, first compound 0.00316 µM): 110%
viability, T/C (second compound 0.00949 µM, first compound 0.01 µM): 107%
viability, T/C (second compound 0.00949 µM, first compound 0.0316 µM): 102%
viability, T/C (second compound 0.00949 µM, first compound 0.1 µM): 107%
viability, T/C (second compound 0.00949 µM, first compound 0.316 µM): 112%
viability, T/C (second compound 0.00949 µM, first compound 1 µM): 106%
viability, T/C (second compound 0.03 µM, first compound 0.00316 µM): 106%
viability, T/C (second compound 0.03 µM, first compound 0.01 µM): 97%
viability, T/C (second compound 0.03 µM, first compound 0.0316 µM): 110%
viability, T/C (second compound 0.03 µM, first compound 0.1 µM): 110%
viability, T/C (second compound 0.03 µM, first compound 0.316 µM): 114%
viability, T/C (second compound 0.03 µM, first compound 1 µM): 104%
viability, T/C (second compound 0.0949 µM, first compound 0.00316 µM): 101%
viability, T/C (second compound 0.0949 µM, first compound 0.01 µM): 102%
viability, T/C (second compound 0.0949 µM, first compound 0.0316 µM): 96%
viability, T/C (second compound 0.0949 µM, first compound 0.1 µM): 101%
viability, T/C (second compound 0.0949 µM, first compound 0.316 µM): 95.2%
viability, T/C (second compound 0.0949 µM, first compound 1 µM): 92.8%
viability, T/C (second compound 0.3 µM, first compound 0.00316 µM): 91.2%
viability, T/C (second compound 0.3 µM, first compound 0.01 µM): 87%
viability, T/C (second compound 0.3 µM, first compound 0.0316 µM): 92.1%
viability, T/C (second compound 0.3 µM, first compound 0.1 µM): 87.9%
viability, T/C (second compound 0.3 µM, first compound 0.316 µM): 84.9%
viability, T/C (second compound 0.3 µM, first compound 1 µM): 90.9%
